Measurements published in patent publication US20260193173A1, “AMINO ACID-BENZOIC ACID OLIGOMERS AND METHODS OF USE THEREOF FOR TREATING CANCER” (Board of Regents, The University of Texas System, priority 2022, published 2026).

Legend:
[1] = molecular target: Bcl-2 (Homo sapiens, UniProt P10415); assay: Bcl-2 protein binding, fluorescence polarization assay
From the text: IC50 values were in the submicromolar range as determined by fluorescence polarization assay.

[2] = system: DU145 prostate cancer cells; assay: MTT assay, growth inhibition of prostate cancer cell line DU145; format: cell-based; settings: Homo sapiens, DU-145, incubated with DU145 cells for 72 hours
Protocol: FIGS. 3A-3C show % inhibition (determined by MTT assay) of disclosed compounds on prostate cancer cell line DU145. Compounds were incubated with DU145 cells for 72 hours, showing strong cell growth inhibition with IC50 of 0.15-0.7 μM.

Sequence of Bcl-2 (P10415 whole entry): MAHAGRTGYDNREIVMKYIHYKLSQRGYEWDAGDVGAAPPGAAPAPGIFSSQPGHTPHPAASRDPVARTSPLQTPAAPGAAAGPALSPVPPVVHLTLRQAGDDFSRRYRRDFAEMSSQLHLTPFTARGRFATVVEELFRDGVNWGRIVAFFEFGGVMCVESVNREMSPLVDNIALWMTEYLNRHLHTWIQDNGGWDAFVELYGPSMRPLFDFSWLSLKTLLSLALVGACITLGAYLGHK

Row | SMILES | IC50 [1] | IC50 [2]
1 | CCC(C)C(NC(=O)c1ccc(NC(=O)C(NC(=O)c2ccc(N)c(OC)c2)C(C)CC)c(OCC(C)C)c1)C(=O)Nc1ccc(C(N)=O)cc1OCc1ccccc1 (centres unmarked) [Compound B9] | 1540 nM | 300 nM
2 | CCC(C)C(NC(=O)c1ccc(N)c(OC)c1)C(=O)Nc1ccc(C(=O)NC(CCSC)C(=O)Nc2ccc(C(N)=O)cc2OCC(C)C)cc1OCC(C)C (centres unmarked) [Compound B10] | 1960 nM | 779 nM
3 | CC(C)COc1cc(C(=O)NC(CS)C(=O)Nc2ccc(C(=O)NC(Cc3ccccc3)C(=O)Nc3ccc(C(N)=O)cc3OCC(C)C)cc2OCC(C)C)ccc1N (centres unmarked) [Compound B11] | 1080 nM | 120 nM
4 | COc1cc(C(=O)NC(Cc2ccc(O)cc2)C(=O)Nc2ccc(C(=O)NC(CCSC)C(=O)Nc3ccc(C(N)=O)cc3OCc3ccccc3)cc2OCC(C)C)ccc1N (centres unmarked) [Compound B12] | 599 nM | 702 nM
